Experimental data taken from patent publication US7687664B2, “Carboxylic acid derivative, a salt thereof or an ester of them, and medicament comprising it” (Eisai R&D Management Co., Ltd., priority 2001, dated 2010).

Experiments:
Test in all cases: Transcriptional activity, GAL4-PPAR LBD chimera / PLAP reporter in CV-1 cells
Assay type in all cases: cell-based
human PPAR γ = target: T1, human PPAR γ (Homo sapiens, UniProt P37231); settings: GAL4-PPARγ LBD, PLAP activity 24 hours after addition
T1 construct: 174-475 (PPARγ); expressed in transfected cells; host or cells: CV-1 (ATCC CCL-70)
T1 sequence (P37231 174-475 isoform P37231-2): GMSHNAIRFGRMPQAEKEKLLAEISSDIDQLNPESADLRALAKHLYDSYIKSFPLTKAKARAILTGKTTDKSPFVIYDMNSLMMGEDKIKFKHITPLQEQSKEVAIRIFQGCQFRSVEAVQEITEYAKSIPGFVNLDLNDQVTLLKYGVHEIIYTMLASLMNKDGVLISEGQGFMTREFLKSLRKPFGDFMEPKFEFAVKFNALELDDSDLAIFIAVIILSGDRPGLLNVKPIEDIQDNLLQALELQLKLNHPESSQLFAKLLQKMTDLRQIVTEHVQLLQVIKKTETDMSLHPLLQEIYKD
Text: (§1) A GAL4-PPAR LBD chimera expression vector was constructed by ligating human PPAR 167-468 (PPAR α), 138-440 (NUC-1) and 174-475 (PPARγ) amino acid regions (LBD: Ligand Binding Domain) to a yeast transcriptional factor GAL4 1-147 amino acid region. As the reporter gene, PLAP (Placental Alkaline Phosphatase) was used, and this was ligated downstream of a TK promoter containing a 5-copy GAL4 DNA binding element to construct a vector. As host cells, CV-1 (ATCC CCL-70) was used. That is, CV-1 cells were spread at a density of 5×10^5 cells on a 35-mm dish and cultured in 10% FCS/DMEM for 24 hours, and using FuGENE 6 transfection reagent, the cells were co-transfected with the GAL4-PPAR LBD expression vector and GAL4 DBD-TK-PLAP expression vector. 24 hours after this transfection, the cells were spread again on a 96-well plate at a density of 1×10^4/well and further cultured for 24 hours. After 24 hours, the medium was exchanged with DMEM containing 10% FCS, which was previously treated at 65° C. for inactivating intrinsic alkaline phosphatase, and a test compound was added at an arbitrary concentration. The transcriptional activity was determined in terms of PLAP activity secreted 24 hours after addition of the compound, to calculate EC50.
(§2) The PLAP activity was determined after adding 50 μl assay buffer and 50 μl chemoluminescence substrate to 10 μl culture supernatant and incubating the mixture at room temperature for 1 hour. In this way, transcription activities with respect to PPARα, PPARβ(δ) and PPARγ could be determined.

human PPAR α = target: T2, human PPAR α (Homo sapiens, UniProt Q07869); settings: GAL4-PPARα LBD, PLAP activity 24 hours after addition
T2 construct: human PPAR 167-468 (PPAR α); expressed in transfected cells; host or cells: CV-1 (ATCC CCL-70)
T2 sequence (Q07869 167-468): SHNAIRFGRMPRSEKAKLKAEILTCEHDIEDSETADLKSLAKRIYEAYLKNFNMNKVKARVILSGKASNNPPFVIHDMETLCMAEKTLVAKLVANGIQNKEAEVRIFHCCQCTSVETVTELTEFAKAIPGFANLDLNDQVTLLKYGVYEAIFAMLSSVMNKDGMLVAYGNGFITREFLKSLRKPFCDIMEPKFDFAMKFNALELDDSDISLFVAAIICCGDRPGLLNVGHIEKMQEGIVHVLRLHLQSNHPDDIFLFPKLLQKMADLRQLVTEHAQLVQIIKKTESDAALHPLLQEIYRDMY
Text: as §1, §2

[1] = target: T3, human PPAR β (NUC-1, PPARβ(δ)) (Homo sapiens, UniProt Q03181); settings: GAL4-PPARβ(δ) (NUC-1) LBD, PLAP activity 24 hours after addition
T3 construct: 138-440 (NUC-1); expressed in transfected cells; host or cells: CV-1 (ATCC CCL-70)
T3 sequence (Q03181 138-440): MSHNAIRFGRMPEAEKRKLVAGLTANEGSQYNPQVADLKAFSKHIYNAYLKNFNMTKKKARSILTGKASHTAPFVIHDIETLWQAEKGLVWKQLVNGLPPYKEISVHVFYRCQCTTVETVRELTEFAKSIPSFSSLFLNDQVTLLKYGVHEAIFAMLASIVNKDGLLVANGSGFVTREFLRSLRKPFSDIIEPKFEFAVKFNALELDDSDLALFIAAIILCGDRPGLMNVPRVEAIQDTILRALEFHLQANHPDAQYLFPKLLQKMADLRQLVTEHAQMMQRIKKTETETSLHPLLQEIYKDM
Text: as §1, §2

EC50 (human PPAR γ) | EC50 (human PPAR α) | EC50 [1] | Compound
150 nM | 1560 nM | 1140 nM | COc1ccc(-c2cccc(CC(=O)O)c2)cc1OCC(O)COc1ccc(C(C)(C)C)cc1 (stereo not shown) [Ex 365, {3′-[2-Hydroxy-3-(4-t-butylphenoxy)propoxy]-4′-methoxybiphenyl-3-yl}acetic Acid]
1280 nM | 653 nM | 102 nM | COc1ccc(-c2cccc(CC(=O)O)c2)cc1OCC#Cc1cccc(C(F)(F)F)c1 [Ex 375, {3′-[3-(3-Trifluoromethylphenyl)-2-propynyloxy]-4′-methoxybiphenyl-3-yl}acetic Acid]
43 nM | 45 nM | 116 nM | COc1ccc(-c2ccc(C)c(C(=O)O)c2)cc1CNC(=O)c1ccc(Cl)cc1Cl [Example 21, 3-(3-{[(2,4-Dichlorobenzoyl)amino]methyl}-4-methoxyphenyl)-6-methylbenzoic Acid]
31 nM | – | – | CCCOc1ccc(C(=O)NCc2cc(-c3cccc(/C=C(\CC)C(=O)O)c3)ccc2OC)c(Cl)c1 [Example 141, (E)-2-Ethyl-3-[3-(3-{[(4-propoxy-2-chlorobenzoyl)amino]methyl}-4-methoxyphenyl)phenyl]-2-propenoic Acid]
136 nM | 538 nM | 0.35 nM | CCCOc1ccc(-c2cc(C(=O)O)ccc2Cl)cc1CNC(=O)c1ccc(C(F)(F)F)cc1F [Example 199, 3-(3-{[(4-Trifluoromethyl-2-fluorobenzoyl)amino]methyl}-4-propoxyphenyl)-4-chlorobenzoic Acid]
58 nM | 750 nM | 0.5 nM | COc1ccc(-c2cccc(CC(=O)O)c2)cc1CNC(=O)c1ccc(C(F)(F)F)cc1F [Example 220, 3-(3-{[(4-Trifluoromethyl-2-fluorobenzoyl)amino]methyl}-4-methoxyphenyl)-3-phenylacetic Acid]
– | 29 nM | – | Cc1ccc(-c2ccccc2CNC(=O)c2sc(-c3ccc(Cl)cc3)nc2C)cc1C(=O)O [Example 257, 3-(2-[([2-(4-Chlorophenyl)-4-methyl-1,3-thiazol-5-yl]carbonylamino)methyl]phenyl)-6-methylbenzoic Acid]
1160 nM | – | 0.48 nM | COc1ccc(-c2cccc(CC(=O)O)c2)cc1CCOc1ccc(Cl)cc1Cl [Example 263, 3-{3-[2-(2,4-Dichlorophenoxy)ethyl]-4-methoxyphenyl}phenylacetic Acid]
468 nM | 622 nM | 18 nM | COc1ccc(-c2cccc(CC(=O)O)c2)cc1CCOC(=O)Nc1ccc(C(F)(F)F)cc1 [Example 267, 2-[5-(3-{2-[(4-Trifluoromethylanilinocarbonyl)oxy]ethyl}-4-methoxyphenyl)-3-phenyl]acetic Acid]
700 nM | 3 nM | 74 nM | CCOc1ccc(-c2cccc(CC(=O)O)c2)cc1CNC(=O)OCc1ccc(CC)cc1 [Example 302, {4′-Ethoxy-3′-[(4-ethylbenzyloxycarbonylamino)methyl]-biphenyl-3-yl}acetic Acid]
1410 nM | 1820 nM | 160 nM | COc1ccc(-c2cccc(CC(=O)O)c2)cc1C#CCOc1ccc(C(F)(F)F)cc1 [Example 351, {4′-Methoxy-3′-[3-(4-trifluoromethylphenoxy)1-propynyl]biphenyl-3-yl}acetic Acid]
654 nM | 719 nM | < 0.1 nM | COc1ccc(-c2cccc(CC(=O)O)c2)cc1/C(C)=N/OCc1ccc(C(F)(F)F)cc1 [Example 361, {4′-Methoxy-3′-[1-(4-trifluoromethylbenzyloxyimino)ethyl]-biphenyl-3-yl}acetic Acid]
